Tests used:
Format in all cases: cell-based
[1] = biological target: T1, P2X7 (Homo sapiens (Human), UniProt Q99572); experiment: Ca2+ flux (FLIPR) in 1321N1 cells expressing recombinant human P2X7 channel; conditions: 250 μM BzATP;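 also: Calcium-4 dye-loaded cells exposed to compound for 30 min before agonist addition, fluorescence change read 180 s after agonist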
[2] = biological target: T1, P2X7; experiment: P2X7 antagonism in human PBMCs (LPS + Bz-ATP induced IL-1β release, ELISA); conditions: LPS 30 ng/ml, Bz-ATP 0.5 mM; for PBMC 10 μM (% control): compound 10 μM; for PBMC 1 μM (% control): compound 1 μM;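 as to all read-outs here: PBMCs from donor human blood, with a further 1.5 h incubation of the cells in the assay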
[3] = biological target: rat P2X7 (Rattus norvegicus (Rat), UniProt Q64663); experiment: Ca2+ flux (FLIPR) in 1321N1 cells expressing recombinant rat P2X7 channel; conditions: 250 μM BzATP;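 also: Calcium-4 dye fluorescence change read 180 s after agonist addition, following 30 min cell preincubation with test compound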
Chain of rat P2X7 (Q64663 whole entry): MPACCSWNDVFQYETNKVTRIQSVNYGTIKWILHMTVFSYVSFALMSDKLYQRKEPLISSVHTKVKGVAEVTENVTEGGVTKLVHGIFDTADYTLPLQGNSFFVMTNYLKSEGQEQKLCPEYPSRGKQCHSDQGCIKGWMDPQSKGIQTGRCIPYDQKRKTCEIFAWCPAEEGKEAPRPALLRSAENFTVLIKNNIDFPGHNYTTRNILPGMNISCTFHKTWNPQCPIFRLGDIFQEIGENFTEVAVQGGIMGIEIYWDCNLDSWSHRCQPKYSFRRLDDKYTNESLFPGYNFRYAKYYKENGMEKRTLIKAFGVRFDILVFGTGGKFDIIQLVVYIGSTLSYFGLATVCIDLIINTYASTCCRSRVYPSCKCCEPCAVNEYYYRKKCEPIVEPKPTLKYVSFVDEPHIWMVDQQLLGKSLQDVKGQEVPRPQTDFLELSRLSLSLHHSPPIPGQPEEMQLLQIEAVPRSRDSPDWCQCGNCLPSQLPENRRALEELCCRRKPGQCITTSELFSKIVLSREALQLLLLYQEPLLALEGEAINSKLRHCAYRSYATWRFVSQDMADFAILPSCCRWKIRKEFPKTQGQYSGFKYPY

T1 sequence (Q99572 whole entry): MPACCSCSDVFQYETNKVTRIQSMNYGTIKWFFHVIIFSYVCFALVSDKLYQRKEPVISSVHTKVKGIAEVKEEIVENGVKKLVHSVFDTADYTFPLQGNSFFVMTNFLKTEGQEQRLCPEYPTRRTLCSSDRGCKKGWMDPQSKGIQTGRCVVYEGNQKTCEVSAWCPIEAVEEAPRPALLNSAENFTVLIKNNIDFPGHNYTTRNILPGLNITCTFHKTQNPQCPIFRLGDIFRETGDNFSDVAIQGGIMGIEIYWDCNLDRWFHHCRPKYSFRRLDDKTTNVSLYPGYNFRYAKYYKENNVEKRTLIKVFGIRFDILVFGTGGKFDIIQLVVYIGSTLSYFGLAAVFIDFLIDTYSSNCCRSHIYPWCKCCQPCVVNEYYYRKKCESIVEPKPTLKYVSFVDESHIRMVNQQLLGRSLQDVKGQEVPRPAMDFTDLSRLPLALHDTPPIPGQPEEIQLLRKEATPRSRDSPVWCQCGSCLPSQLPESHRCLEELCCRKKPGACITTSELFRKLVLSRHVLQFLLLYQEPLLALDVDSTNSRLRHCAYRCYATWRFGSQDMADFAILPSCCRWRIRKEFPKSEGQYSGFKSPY

| SMILES | IC50 [1] [nM] | PBMC 10 μM (% control) [2] [% control] | IC50 [3] [nM] | PBMC 1 μM (% control) [2] [% control] |
| --- | --- | --- | --- | --- |
| Cc1cncc(-n2nnc3c2CCN(C(=O)c2cccc(Cl)c2Cl)C3C)n1 (stereo not shown) [Example 180, (2,3-dichlorophenyl)(4-methyl-1-(6-methylpyrazin-2-yl)-6,7-dihydro-1H-[1,2,3]triazolo[4,5-c]pyridin-5(4H)-yl)methanone] | 592 | −3.7 | > 10000 |  |
| CC1C=CN=C(n2nnc3c2CCN(C(=O)c2cccc(C(F)(F)F)c2Cl)[C@@H]3C)N1 (single isomer, unassigned) [Example 234, (4R*)-(2-Chloro-3-(trifluoromethyl)phenyl)((4R)-4-methyl-1-(6-methyl-1,6-dihydropyrimidin-2-yl)-6,7-dihydro-1H-[1,2,3]triazolo[4,5-c]pyridin-5(4H)-yl)methanone] | 200 | −40.9 | 2000 |  |
| C[C@H]1Cc2c(nnn2-c2ncc(F)cn2)CN1C(=O)c1cc(F)cc(C(F)(F)F)c1 [Example 307, (S)-(3-fluoro-5-(trifluoromethyl)phenyl)(1-(5-fluoropyrimidin-2-yl)-6-methyl-6,7-dihydro-1H-[1,2,3]triazolo[4,5-c]pyridin-5(4H)-yl)methanone] | > 10000 | 2.2 | 10700 |  |
| Cn1nccc1-n1nnc2c1CCN(C(=O)c1cccc(C(F)(F)F)c1Cl)C2 [Example 128, (2-Chloro-3-(trifluoromethyl)phenyl)(1-(1-methyl-1H-pyrazol-5-yl)-6,7-dihydro-1H-[1,2,3]triazolo[4,5-c]pyridin-5(4H)-yl)methanone] | 2110 | 23.1 | > 10000 |  |
| O=C(c1cccc(Cl)c1Cl)N1CCc2c(n[nH]c2-c2cncnc2)C1 [Example 330, (2,3-dichlorophenyl)(3-(pyrimidin-5-yl)-4,5-dihydro-2H-pyrazolo[3,4-c]pyridin-6(7H)-yl)methanone] | > 10000 | 33.8 | > 10000 |  |
| O=C(OCC1c2ncn(-c3ccccc3)c2CCN1C(=O)c1cccc(C(F)(F)F)c1Cl)c1cccc(C(F)(F)F)c1Cl (stereo not shown) [Example 36, (5-{[2-Chloro-3-(trifluoromethyl)phenyl]carbonyl}-1-phenyl-4,5,6,7-tetrahydro-1H-imidazo[4,5-c]pyridin-4-yl)methyl 2-chloro-3-(trifluoromethyl)benzoate] | 3080 |  |  | 16.6 |
| Cc1cnc(-n2nnc3c2CCN(C(=O)c2cccc(C(F)(F)F)c2Cl)C3C)c(C)c1 (stereo not shown) [Example 159, (2-chloro-3-(trifluoromethyl)phenyl)(1-(3,5-dimethylpyridin-2-yl)-4-methyl-6,7-dihydro-1H-[1,2,3]triazolo[4,5-c]pyridin-5(4H)-yl)methanone] | > 10000 | 54.1 | > 10000 |  |
| Cc1cc(C)nc(-n2nnc3c2CCN(C(=O)c2cccc(Cl)c2Cl)C3C)c1 (stereo not shown) [Example 231, (2,3-dichlorophenyl)(1-(4,6-dimethylpyridin-2-yl)-4-methyl-6,7-dihydro-1H-[1,2,3]triazolo[4,5-c]pyridin-5(4H)-yl)methanone] | 499 | −4.8 | 38200 |  |
| Cn1nc2c(c1-c1ccncc1)CCN(C(=O)c1cccc(C(F)(F)F)c1Cl)C2 [Example 327, (2-chloro-3-(trifluoromethyl)phenyl)(2-methyl-3-(pyridin-4-yl)-4,5-dihydro-2H-pyrazolo[3,4-c]pyridin-6(7H)-yl)methanone] | > 10000 |  | > 10000 | 93.1 |
| CC1c2ncn(-c3cnccn3)c2C=CN1C(=O)c1cccc(C(F)(F)F)c1Cl (stereo not shown) [Example 56, 5-{[2-Chloro-3-(trifluoromethyl)phenyl]carbonyl}-4-methyl-1-pyrazin-2-yl-4,5-dihydro-1H-imidazo[4,5-c]pyridine] | 25.1 |  | 398 | 10.1 |
| CC1CN(C(=O)c2cccc(C(F)(F)F)c2Cl)C(C)c2nnn(-c3ccc(F)cc3)c21 (stereo not shown) [Example 238, (2-Chloro-3-(trifluoromethyl)phenyl)(1-(4-fluorophenyl)-4,7-dimethyl-6,7-dihydro-1H-[1,2,3]triazolo[4,5-c]pyridin-5(4H)-yl)methanone] | 27.1 | −4.1 | 724 |  |
| CC(C)C1c2ncn(-c3cnccn3)c2CCN1C(=O)c1cccc(C(F)(F)F)c1Cl (stereo not shown) [Example 16, (2-Chloro-3-(trifluoromethyl)phenyl)(4-isopropyl-1-(pyrazin-2-yl)-6,7-dihydro-1H-imidazo[4,5-c]pyridin-5(4H)-yl)methanone] | 104 |  | 456 | 8.5 |
| CC1c2c(nnn2-c2ccccc2)CCN1C(=O)c1cccc(C(F)(F)F)c1Cl (stereo not shown) [Example 289, (2-chloro-3-(trifluoromethyl)phenyl)(4-methyl-3-phenyl-6,7-dihydro-3H-[1,2,3]triazolo[4,5-c]pyridin-5(4H)-yl)methanone] | 1190 | −27.6 | 2410 |  |
| O=C(c1ccc(Cl)cc1Cl)N1CCc2c(ncn2-c2ccc(F)cn2)C1 [Example 313, (2,4-dichlorophenyl)(1-(5-fluoropyridin-2-yl)-6,7-dihydro-1H-imidazo[4,5-c]pyridin-5(4H)-yl)methanone] | 1110 | −5.4 |  |  |
| CC1c2ncn(-c3ccc(F)cn3)c2CCN1C(=O)c1ccccc1F (stereo not shown) [Example 264, (2-fluorophenyl)(1-(5-fluoropyridin-2-yl)-4-methyl-6,7-dihydro-1H-imidazo[4,5-c]pyridin-5(4H)-yl)methanone] | > 10000 | 89.5 | > 10000 |  |
| CC1c2ncn(-c3ccc(F)cn3)c2CCN1C(=O)c1ccc(F)cc1Cl (stereo not shown) [Example 256, (2-chloro-4-fluorophenyl)(1-(5-fluoropyridin-2-yl)-4-methyl-6,7-dihydro-1H-imidazo[4,5-c]pyridin-5(4H)-yl)methanone] | 2390 | 7.1 | > 10000 |  |
| CC1CN(C(=O)c2cccc(Cl)c2Cl)Cc2nnn(-c3ccc(F)cc3)c21 (stereo not shown) [Example 247, (2,3-Dichlorophenyl)(1-(4-fluorophenyl)-7-methyl-6,7-dihydro-1H-[1,2,3]triazolo[4,5-c]pyridin-5(4H)-yl)methanone] | 2330 | −0.8 |  |  |
| Cn1nc2c(c1-c1cncnc1)CCN(C(=O)c1cccc(Cl)c1Cl)C2 [Example 329, (2,3-dichlorophenyl)(2-methyl-3-(pyrimidin-5-yl)-4,5-dihydro-2H-pyrazolo[3,4-c]pyridin-6(7H)-yl)methanone] | > 10000 |  | > 10000 | 99.5 |
| COc1ccc(-n2nnc3c2CCN(C(=O)c2cccc(C(F)(F)F)c2Cl)C3C)nc1 (stereo not shown) [Example 145, (2-Chloro-3-(trifluoromethyl)phenyl)(1-(5-methoxypyridin-2-yl)-4-methyl-6,7-dihydro-1H-[1,2,3]triazolo[4,5-c]pyridin-5(4H)-yl)methanone] | 2310 | 15.2 |  |  |
| O=C(c1cccc(C(F)(F)F)c1Cl)N1CCc2c(nc(C(F)(F)F)n2-c2ccccc2)C1 [Example 38, (2-Chloro-3-(trifluoromethyl)phenyl)(1-phenyl-2-(trifluoromethyl)-6,7-dihydro-1H-imidazo[4,5-c]pyridin-5(4H)-yl)methanone] | 14.3 | −0.3 |  |  |
| C[C@@H]1c2nnn(-c3ccccn3)c2CCN1C(=O)c1ccc(F)c(Cl)c1Cl (single isomer, unassigned) [Example 141, (R*)-(2,3-Dichloro-4-fluorophenyl)(4-methyl-1-(pyridin-2-yl)-6,7-dihydro-1H-[1,2,3]triazolo[4,5-c]pyridin-5(4H)-yl)methanone] | 9590 | 40.5 |  |  |
| Cn1nc(-c2ccc(F)cc2)c2c1CN(C(=O)c1cccc(Cl)c1Cl)CC2 [Example 109, 6-[(2,3-Dichlorophenyl)carbonyl]-3-(4-fluorophenyl)-1-methyl-4,5,6,7-tetrahydro-1H-pyrazolo[3,4-c]pyridine] | 251 |  |  | 94.1 |
| CC1Cc2c(nnn2-c2cc(F)ccn2)CN1C(=O)c1cccc(Cl)c1Cl (stereo not shown) [Example 173, 5-[(2,3-Dichlorophenyl)carbonyl]-1-(4-fluoropyridin-2-yl)-6-methyl-4,5,6,7-tetrahydro-1H-[1,2,3]triazolo[4,5-c]pyridine] |  | 8.8 | 10.2 |  |
| CCc1cccnc1-n1nnc2c1CCN(C(=O)c1cccc(C(F)(F)F)c1Cl)C2C (stereo not shown) [Example 254, (2-Chloro-3-(trifluoromethyl)phenyl)(1-(3-ethylpyridin-2-yl)-4-methyl-6,7-dihydro-1H-[1,2,3]triazolo[4,5-c]pyridin-5(4H)-yl)methanone] |  | 0.9 | 4260 |  |
| CCOc1cccnc1-n1nnc2c1CCN(C(=O)c1cccc(C(F)(F)F)c1Cl)[C@H]2C (single isomer, unassigned) [Example 317, (S*)-(2-chloro-3-(trifluoromethyl)phenyl)(1-(3-ethoxypyridin-2-yl)-4-methyl-6,7-dihydro-1H-[1,2,3]triazolo[4,5-c]pyridin-5(4H)-yl)methanone] |  | 4.8 | > 10000 |  |
| CC1CN(C(=O)c2cccc(Cl)c2Cl)Cc2nnn(-c3ccccc3)c21 (stereo not shown) [Example 244, (2,3-Dichlorophenyl)(7-methyl-1-phenyl-6,7-dihydro-1H-[1,2,3]triazolo[4,5-c]pyridin-5(4H)-yl)methanone] | 1140 | −2.3 |  |  |

Reference: patent US9464084B2, “P2X7 modulators” (Janssen Pharmaceutica NV, priority 2013, dated 2016)
